The values that follow come from patent US8394426B2, “Composition comprising an extract of hardy kiwi for preventing or treating baldness disorders or seborrheic skin disorders” (Viromed Co., Ltd., priority 2004, dated 2013).

The experiment has as its system blood DHT. Put plainly: concentration of blood DHT in mice after oral administration, measured by ELISA. In kind it is in vivo. The settings on record: male C57BL/6 mice, oral finasteride 100 μg/mouse/day for 3 weeks, FIG. 4. For orientation: ELISA stands for enzyme-linked immunosorbent assay.

Protocol: To confirm the inhibition effect of hardy kiwi extract on the concentration of blood DHT, the water extract and ethanol extract of fruit of Actinidia arguta were administrated into mice and the concentration of blood DHT were determined by following procedure;
Male C57BL/6 mice, aged 6 weeks (Seoul national university animal experimental center) were acclimated to the environment for 1 week. After 1 week, 16 mice were divided into 4 groups and each group was orally administered with 100 μl of the water extract of fruit of Actinidia arguta (1500 μg/mouse/day), 100 μl of the ethanol extract of fruit of Actinidia arguta (1500 μg/mouse/day), 100 μl of finasteride (100 μg/mouse/day), and 100 μl of drinking water (100 μg/mouse/day) for 3 weeks, respectively. After mice were sacrificed and the blood serum and spleen organ were colllected therefrom, the concentration of blood DHT was measured by ELISA (IBL-Hamburg GmbH) method. […]
After 1 week, 8 mice were divided into 2 groups and each group was orally administered with 100 μl of the water extract of dried stem of A. arguta (1500 μg/mouse/day) and 100 μl of drinking water (100 μg/mouse/day) for 3 weeks, respectively. After mice were sacrificed and the blood serum and spleen organ was colllected therefrom, the concentration of blood DHT was measured.

Consider `CC(C)(C)NC(=O)[C@H]1CC[C@H]2[C@@H]3CC[C@H]4NC(=O)C=C[C@]4(C)[C@H]3CC[C@]12C` [finasteride], for which the “decrease of concentration of blood DHT” value is given as “about 90%”.
